The assay concerns vTreg53 TCR. Kind of assay: vTreg53 TCR tetramer staining of single peptide-A^b yeast clone. It is filed as binding, murine. The note with it: 500 nM final tetramer concentration. The method, then:
Figure 2. Identification of surrogate peptides recognized by the vTreg53 TCR. (A) The vTreg53 TCR was used to screen and isolate the peptide-MHC yeast display. vTreg53 TCR tetramer staining (500 nM of TCR-SA) together with c-Myc staining is shown for the naïve library and four consecutive rounds of selection. […] (C) Positional frequency representation from the deep sequencing of the third round of selection with vTreg53. (D) Positional frequency matrix based on the deep sequencing of the fourth round of the peptide-MHC yeast selection. […] Data shown are representative of at least two independent experiments. Figure 2—figure supplement 1. Evolution of peptide-Ab yeast display. […] TEXT PRINTED IN THE PICTURE: (B) Fat7: Fraction: 0.596 | (B) TMYKGPHAVAAFT: Fraction: 0.369 | (B) LMFKGPHAVAAFT: Fraction: 0.029 | (B) FTYKNPRPVAATG: Fraction: 0.006 | (B) Fat15: Fraction: 0.000 | (B) TMYKNPRPVAATG: Fraction: 0.000 | (B) TMYKNPRPVAATG: Fraction: 0.000 DOUBTS OF THE COPYIST ABOUT THIS PICTURE: Panel B: the Fraction values are shares of sequencing reads from a selection, so it is uncertain whether they count as a result for a substance. […]
Yeast were passaged in SDCAA and induced with SGCAA and selected with streptavidin (SA) - coated magnetic MACS beads (Miltenyi) coated with biotinylated TCR. […] Peptide-A^b surface expression was monitored with anti-c-myc (Cell Signaling) antibody staining. […]

Regarding LMFKGPHAVQAVG [Fat7], the “vTreg53 TCR-SA tetramer staining” value is “positive”.

For the origin of these results see PMC7440915, “Discovery of surrogate agonists for visceral fat Treg cells that modulate metabolic indices in vivo” (eLife, 2020).
